Series [1] has as its system Colletotrichum lindemuthianum. In words: In vivo preventive test on Colletotrichum lindemuthianum (Antrachnose on bean). The following applies: 144 h, inoculation 72 h after spraying, evaluated 6 days after inoculation, read-out: efficacy; for pest or weed control at 31 ppm: 31 ppm of active ingredient; for pest or weed control at 500 ppm: 500 ppm of active ingredient. The procedure:
(§1) The tested active ingredients were prepared by homogenization in a mixture of acetone/Dimethyl sulfoxide/Tween®, and then diluted with water to obtain the desired active material concentration. The young plants of bean were treated by spraying the active ingredient prepared as described above. Control plants were treated only with an aqueous solution of acetone/Dimethyl sulfoxide/Tween®.
After 72 hours, the plants were contaminated by spraying the leaves with an aqueous suspension of Colletotrichum lindemuthianum spores. The contaminated bean plants were incubated for 24 hours at 20° C. and at 100% relative humidity and then for 5 days at 20° C. and at 90% relative humidity. The test was evaluated 6 days after the inoculation. 0% means an efficacy which corresponds to that of the control plants while an efficacy of 100% means that no disease was observed.
Compound CMP1 was tested in an in vivo preventive test on Colletotrichum lindemuthianum (Antrachnose on bean) in the same conditions as described in Example F.

Series [2] concerns Xanthomonas campestris pv. campestris. The series can be described thus: In vivo preventive test on Xanthomonas campestris pv. campestris (black rot on cabbage). As to conditions: evaluated 8 or 10 days after inoculation, read-out: efficacy; for pest or weed control at 31 ppm: 31 ppm of active ingredient; for pest or weed control at 125 ppm: 125 ppm of active ingredient. On the procedure:
The tested active ingredients were prepared by homogenization in a mixture of acetone/Dimethyl sulfoxide/Tween®, and then diluted with water to obtain the desired active material concentration.
The young plants of cabbage were treated by spraying the active ingredient prepared as described above. Control plants were treated only with an aqueous solution of acetone/Dimethyl sulfoxide/Tween®.
After 72 hours, the plants were contaminated by spraying the leaves with an aqueous bacteria suspension of Xanthomonas campestris pv. campestris. The contaminated cabbage plants were incubated for 8 or 10 days at 27° C. at 95% relative humidity.
The test was evaluated 8 or 10 days after the inoculation. 0% means an efficacy which corresponds to that of the control plants while an efficacy of 100% means that no disease was observed. […]
Compounds CMP1, CMP2, CMP3 and CMP4 were tested in an in vivo preventive test on Xanthomonas campestris pv. campestris (black rot on cabbage) in the same conditions as described in Example H.

Series [3] deals with Pseudomonas syringae pv. tomato. In words: In vivo preventive test on Pseudomonas syringae pv. tomato (bacterial speck on tomato). As to conditions: evaluated 5 or 6 days after inoculation, read-out: efficacy; for pest or weed control at 500 ppm: 500 ppm of active ingredient; for pest or weed control at 31 ppm: 31 ppm of active ingredient. On the procedure:
The tested active ingredients were prepared by homogenization in a mixture of acetone/Dimethyl sulfoxide/Tween®, and then diluted with water to obtain the desired active material concentration. The young plants of tomato were treated by spraying the active ingredient prepared as described above. Control plants were treated only with an aqueous solution of acetone/Dimethyl sulfoxide/Tween®.
After 72 hours, the plants were contaminated by spraying the leaves with an aqueous bacteria suspension of Pseudomonas syringae pv. tomato. The contaminated tomato plants were incubated for 4 days in saturated atmosphere at 22° C. day/20° C. night—70% HR and then for 1 or 2 days at 22° C. day/20° C. night at 70-80% relative humidity.
The test was evaluated 5 or 6 days after the inoculation. 0% means an efficacy which corresponds to that of the control plants while an efficacy of 100% means that no disease was observed.
Compounds CMP1 and CMP4 were tested in an in vivo preventive test on Pseudomonas syringae pv. tomato (bacterial speck on tomato) in the same conditions as described in Example J.

Series [4] deals with salicylate responsive promoter sequence of the PR1 (pathogenesis-related protein I) gene (AT2G14610). The series can be described thus: Induction of defense gene expression in Arabidopsis thaliana (PR1 promoter-GFP reporter plants). The following applies: Arabidopsis thaliana, 72 h, 3rd day after spraying, mock treated leaves set as 1.00, read-out: relative fluorescence value; for fold induction at 75 ppm: 75 ppm of compound. Type of series: in vivo. The procedure:
Arabidopsis thaliana reporter plants containing the coding sequence of a green fluorescent protein (GFP) linked to the salicylate responsive promoter sequence of the PR1 (pathogenesis-related protein I) gene (AT2G14610) were grown for five days and then sprayed with compounds. On the 3rd day after spraying, plant fluorescence was assessed with a MacroFluo instrument from Leica Microsystems (Wetzlar, Germany). Fluorescences were quantified with the Meta-Morph Microscopy Automation & Image Analysis Software (Molecular Devices, Sunnyvale, Calif., United States). Background fluorescence in mock treated leaves was set as 1.00.

A further series deals with Peronospora parasitica. In words: In vivo preventive test on Peronospora parasitica (Crucifer downy mildew). The following applies: Hyaloperonospora parasitica, in Brassica oleracea, 120 h, cabbage, evaluated 5 days after inoculation, read-out: efficacy; for pest or weed control at 31 ppm: 31 ppm of active ingredient; for pest or weed control at 125 ppm: 125 ppm of active ingredient; for pest or weed control at 500 ppm: 500 ppm of active ingredient. On the procedure:
The tested active ingredients were prepared by homogenization in a mixture of acetone/Dimethyl sulfoxide/Tween®, and then diluted with water to obtain the desired active material concentration. The young plants of cabbage were treated by spraying the active ingredient prepared as described above. Control plants were treated only with an aqueous solution of acetone/Dimethyl sulfoxide/Tween®.
After 72 hours, the plants were contaminated by spraying the leaves with an aqueous suspension of Peronospora parasitica spores. The contaminated cabbage plants were incubated for 5 days at 20° C. and at 100% relative humidity.
The test was evaluated 5 days after the inoculation. 0% means an efficacy which corresponds to that of the control plants while an efficacy of 100% means that no disease was observed.
Compounds CMP2 and CMP3 were tested in an in vivo preventive test on Peronospora parasitica (Crucifer downy mildew) in the same conditions as described in Example G.

The subject of the next series is Uromyces appendiculatus. In words: In vivo preventive test on Uromyces appendiculatus (bean rust). The following applies: 240 h, evaluated 10 days after inoculation, read-out: efficacy; for pest or weed control at 125 ppm: 125 ppm of active ingredient; for pest or weed control at 500 ppm: 500 ppm of active ingredient. On the procedure: as §1
After 72 hours, the plants were contaminated by spraying the leaves with an aqueous suspension of Uromyces appendiculatus spores. The contaminated bean plants were incubated for 24 hours at 20° C. and at 100% relative humidity and then for 9 days at 20° C. and at 70-80% relative humidity. The test was evaluated 10 days after the inoculation. 0% means an efficacy which corresponds to that of the control plants while an efficacy of 100% means that no disease was observed.
Compounds CMP5 and CMP6 were tested in an in vivo preventive test on Uromyces appendiculatus (bean rust) in the same conditions as described in Example I.

A short description of series [5]: LogP by HPLC on reversed phase columns (EEC directive 79/831 Annex V.A8). It is filed as physicochemical. The following applies: reversed phase HPLC columns, method [a]: LC-UV, in an acidic range, with 0.1% formic acid in water and acetonitrile as eluent (linear gradient from 10% to 95% acetonitrile). On the procedure: In the above tables, measurement of LogP values was performed according to EEC directive 79/831 Annex V.A8 by HPLC (High Performance Liquid Chromatography) on reversed phase columns with the following methods: • ^[a]
Calibration was done with straight-chain alkan2-ones (with 3 to 16 carbon atoms) with known LogP values (measurement of LogP values using retention times with linear interpolation between successive alkanones). Lambda-max-values were determined using UV-spectra from 200 nm to 400 nm and the peak values of the chromatographic signals.

With `C[C@H](NC(=O)c1sc(Cl)c(Cl)c1Cl)C(=O)O` [CMP1, reference compound], the pest or weed control at 31 ppm in series [1] was < 20%; in series [2], < 40%. For the same compound, the pest or weed control at 500 ppm in series [3] is < 20%.

With `CCNC(=O)[C@@H](NC(=O)c1sc(Cl)c(Cl)c1Cl)C(C)C` [I.090], the fold induction at 75 ppm in series [4] is > 2. For the same compound, the fold induction at 300 ppm in series [4] is > 2. In addition, the pest or weed control at 500 ppm (in series [1]; in the series with Peronospora parasitica; with Uromyces appendiculatus; in series [3]) was 90 to 100% throughout. The pest or weed control at 31 ppm with Peronospora parasitica lay within 90 to 100%; in series [2] it was 70 to 79%; in series [3], 90 to 100%. The values for the pest or weed control at 125 ppm in the series on Peronospora parasitica and in the series on Uromyces appendiculatus were 90 to 100% and 80 to 89%, respectively.

Consider `CCOC(=O)C(C)N(OC)C(=O)c1sc(Cl)c(Cl)c1Cl` (stereo not drawn) [I.108], for which the fold induction at 75 ppm in series [4] is > 2. The fold induction at 300 ppm in series [4] is > 2. For the same compound, the pest or weed control at 500 ppm was in the range of 90 to 100% in series [1], 90 to 100% with Peronospora parasitica, 90 to 100% with Uromyces appendiculatus and 80 to 89% in series [3]. The pest or weed control at 31 ppm (in the series on Peronospora parasitica; in series [2]) was 90 to 100% in each case. The pest or weed control at 125 ppm in the series with Peronospora parasitica and with Uromyces appendiculatus was 90 to 100% each time. The chromatographic logP (commonly lipophilicity estimated from chromatographic retention) in series [5] stood at 4.15.

Consider `COC(=O)C(C)N(OC)C(=O)c1sc(Cl)c(Cl)c1Cl` (stereo not drawn) [I.109], for which, in series [4], the fold induction at 75 ppm was > 2. The fold induction at 300 ppm in series [4] is > 2. The pest or weed control at 500 ppm is 90 to 100% in series [1], 90 to 100% with Peronospora parasitica, 90 to 100% in the series with Uromyces appendiculatus and 80 to 89% in series [3]. Besides, the pest or weed control at 31 ppm with Peronospora parasitica was 90 to 100%. Also, the pest or weed control at 125 ppm was in the range of 90 to 100% in the series on Peronospora parasitica, 70 to 79% in series [2] and 90 to 100% in the series with Uromyces appendiculatus. Besides, the chromatographic logP in series [5] was 3.72.

As for `CON(C(=O)c1sc(Cl)c(Cl)c1Cl)C(C)C(=O)O` (stereo not drawn) [I.111], the fold induction at 300 ppm in series [4] is > 2. For the same compound, the pest or weed control at 500 ppm in series [1] lay within 70 to 79%; with Peronospora parasitica, 90 to 100%; in the series on Uromyces appendiculatus, 90 to 100%; in series [3], 80 to 89%. Moreover, the pest or weed control at 125 ppm in the series on Peronospora parasitica lay within 80 to 89%; in series [2], 70 to 79%; in the series with Uromyces appendiculatus, 90 to 100%. This compound also gave a chromatographic logP in series [5] of 2.83.

On to `COC(=O)[C@H](C)NC(=S)c1sc(Cl)c(Cl)c1Cl` [I.117], for which the fold induction at 75 ppm in series [4] was > 2. Moreover, in series [4], the fold induction at 300 ppm is > 2. Further, the pest or weed control at 31 ppm in series [1] was 70 to 79%; in the series with Peronospora parasitica, 90 to 100%; in series [3], 80 to 89%. The pest or weed control at 500 ppm was in the range of 90 to 100% in series [1], 90 to 100% with Peronospora parasitica, 90 to 100% in the series on Uromyces appendiculatus and 80 to 89% in series [3]. Moreover, the pest or weed control at 125 ppm in the series with Peronospora parasitica and in the series on Uromyces appendiculatus was 90 to 100% in each case. The compound further came in with a chromatographic logP in series [5] of 4.62.

Values taken from patent publication US20230055705A1, “SUBSTITUTED THIOPHENE CARBOXAMIDES AND DERIVATIVES THEREOF” (Bayer Aktiengesellschaft, priority 2019, published 2023).
